{
  "source": "patent US4656142A",
  "about": "“Organometallic complexes of estrogens and their application to the determination of hormone receptors” (Centre National de la Recherche Scientifique, priority 1982, dated 1987)",
  "target": "T1, estradiol receptor (Homo sapiens, UniProt P03372)",
  "T1 construct": "from tissue; host or cells: ewe uterine cytosol (inferred from the sister test)",
  "T1 sequence (P03372 whole entry)": "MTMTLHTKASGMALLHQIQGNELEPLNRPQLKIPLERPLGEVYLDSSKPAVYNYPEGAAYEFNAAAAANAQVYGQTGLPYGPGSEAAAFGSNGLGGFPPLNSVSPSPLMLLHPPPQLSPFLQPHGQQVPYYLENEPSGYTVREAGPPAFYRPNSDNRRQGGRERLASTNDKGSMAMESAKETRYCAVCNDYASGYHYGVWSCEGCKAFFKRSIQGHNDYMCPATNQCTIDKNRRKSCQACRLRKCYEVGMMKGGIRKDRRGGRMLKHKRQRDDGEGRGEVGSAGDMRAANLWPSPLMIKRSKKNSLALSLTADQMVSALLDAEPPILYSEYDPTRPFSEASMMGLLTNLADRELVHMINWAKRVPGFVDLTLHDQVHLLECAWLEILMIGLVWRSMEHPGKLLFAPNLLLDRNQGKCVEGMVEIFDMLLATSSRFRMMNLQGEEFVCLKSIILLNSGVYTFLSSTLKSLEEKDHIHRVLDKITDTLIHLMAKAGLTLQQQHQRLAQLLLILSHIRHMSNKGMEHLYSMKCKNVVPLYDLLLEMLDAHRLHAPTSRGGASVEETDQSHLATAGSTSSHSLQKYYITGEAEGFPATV",
  "experiment": "ability to compete with estradiol for the receptor (log/logit curves, Rao et al.); relative binding affinity",
  "conditions": "competition with estradiol, estradiol = 100",
  "description": "It must be point out that the further the RBA value (relative binding affinity) is from 100, the lower the competitiveness of the steroid tested.",
  "data": [
    {"smiles": "CC(C)(C)[Si](C)(C)Oc1ccc2c(c1)CC[C@@H]1[C@@H]2CC[C@]2(C)[C@@H](O)CC[C@@H]12", "note": "[Compound 1, monosilylated β-estradiol]", "values": [
      {"measurement": "RBA (%) (relative binding affinity)", "value": 11, "unit": "%"}
    ]}
  ]
}
